Patent publication US5552267A, “Solution for prolonged organ preservation” (priority 1994, dated 1996)

Experiments:
pulmonary vasculature = conditions: in vivo; cited from earlier work
lung [1] = assay: orthotopic rat left lung transplantation, nitroglycerin series; type: in vivo, rat (male Lewis)
lung [2] = conditions: in vivo; cited from earlier work
vascular smooth muscle = conditions: cited from earlier work
[3] = test system: neutrophil infiltration of cardiac graft; assay: graft myeloperoxidase activity/histology (leukocyte infiltration), cAMP series; type: in vivo, rat
Protocol: Myeloperoxidase assay/histology. Ten minutes following restoration of blood flow, transplanted hearts were excised and the aortic root was flushed for 5 minutes (rate of 2 ml/minute controlled by roller pump) with normal saline (Baxter, Edison, N.J.), the atria and great vessels were removed, and intracavitary blood was evacuated. Remaining ventricular pieces were weighed, and homogenized in phosphate buffer (50 mM; pH 7.4, 5 ml/gm of tissue) containing hexadecyltrimethylammonium bromide (0.5%; HTAB, [Sigma]) and frozen at -80° C. The myeloperoxidase assay was performed, as described (29), by thawing the sample, centrifuging at 40,000 g for 10 minutes at 4° C., and decanting the supernatant, which was assayed for myeloperoxidase activity using standard chromogenic spectrophotometric technique: test sample (0.1 ml) was added to phosphate buffer (50 mM; pH 6.0) containing O-dianisidine dihydrochloride (Sigma), hydrogen peroxide (0.0005%), and change in absorbance at 460 nm was measured over 5 min (increase in OD was linear over this time interval). For histologic study, cardiac graft samples were fixed in an ascending series of aldehydes, embedded, sectioned, and stained with hematoxylin and eosin.

heart = assay: heterotopic rat cardiac transplant, cAMP series, graft survival/score; type: in vivo, rat (male Sprague-Dawley)
Description: Preservation solutions included lactated Ringer's (LR) solution Baxter, Edison, N.J.), or LR supplemented with rolipram ZK 62 711, Schering AG, Berlin, Germany), indolidan LY195115, Lilly Research Laboratories, Indianapolis, Ind.), sodium butyrate, 8-bromoadenosine, 8-bromoadenosine 3',5'monophosphate (8-Br-cAMP; Sigma Chemical Co., St. Louis, Mo.), the Rp -isomer of adenosine 3',5'monophosphorothioate (Rp -cAMPS; Biolog, La Jolla, Calif.), the Sp isomer of adenosine 3',5'monophosphorothioate (Sp -cAMPS; Biolog), and N^6,O^2' -dibutyryl adenosine 3',5'monophosphate sodium (db-cAMP; Aldrich, Milwaukee, Wis.). Components were combined within 4 hrs of donor cardiectomy, and preservation solutions were kept at 4° C. University of Wisconsin solution (UW)(2-4 was purchased from Dupont (Wilmington, Del.).
Donor Cardiectomy. Male Sprague-Dawley rats (350-450 grams, Camm Research, Wayne, N.J.) were anesthetized, heparinized (1000 units of heparin given intravenously), and the donor heart removed in the following manner; a midline incision was performed, followed by rapid cardioplegic arrest with 5 ml of cold (4° C.), high potassium solution (NACl, 0.9%, and KCl, 40 mEq/L). The heart was maintained at 4° C. throughout the harvest procedure by the application of a cold saline soaked gauze over its surface. […] The aortic root was flushed with ≈15 ml of the cold preservation solution until the coronary arteries became visibly clear, and the heart remained in the cold storage solution for the indicated duration until the time of transplantation.
Heterotopic Transplant. The same breed/size of rat was used, and similarly anesthetized, but not given heparin. A midline abdominal incision was made, and the infrarenal aorta and vena cava were occluded with a side-biting vascular clamp and longitudinal incisions were made in each vessel. The donor heart was removed from the preservation solution and kept moist with saline-soaked gauze. […] Blood flow was restored to the graft (by removal of the clamp) exactly one hour after removal from the cold preservation solution. […] Ten minutes after removal of the cross-clamp, an electrocardiogram was taken (Grass Polygraph, Quincy, Mass.) and the heart was judged by the same blinded investigators throughout based on the presence/absence of regular contractions and a transplant score (0-5, worst-best, respectively) employing the following criteria: contraction (poor=0, average=1, vigorous=2), tissue turgor (hard=0, average=1, soft=2), and color (dusky=0, pink=1). […] The heterotopic cardiac transplant experiments performed in these studies were done by a single surgeon after establishment of this model and acquisition of surgical expertise, with control and experimental groups interspersed throughout the study period to prevent a time-dependent bias pertaining to surgical skills.
Statistics. Graft survival data and transplant scores were analyzed using the Kruskal-Wallis non-parametric analysis of variance (38). Comparisons of individual treatments were performed using the procedure described by Dunn (39). In addition, the effect of db-cAMP on the time-course of graft failure was quantified by multivariate logistic regression. Graft myeloperoxidase data, microsphere data, and cAMP/adenylate cyclase/phosphodiesterase data from experiments with cultured vascular smooth muscle cells were analyzed by t-tests when 2 treatments were performed or by analysis of variance when 3 or more treatments were performed. In the latter case, post-hoc comparison of treatment groups were tested using Tukey's procedure. Values are expressed as means ±SEM, with a p <0.05 considered statistically significant.

[4] = test system: cardiac graft vasculature; assay: graft blood flow by latex microspheres, cAMP series; type: in vivo, rat
Protocol: Perfusion of Donor Graft. Ten minutes after restoration of blood flow, a suspension of latex microspheres (0.5 ml of 10 μm diameter microspheres at a final concentration in 10^6 /ml in phosphate-buffered saline containing Tween 80, 0.05%) (E-Z Trac, Los Angeles, Calif.) was injected over 30 seconds into the donor aortic root. After one minute, the heart was rapidly excised, rinsed free of intracavitary and surface blood, and the atria and great vessels were removed. The ventricles were cut into pieces, each piece weighed, and then digested by alkaline hydrolysis, centrifuged and washed according to the manufacturer's instructions. Beads in each piece were then counted in an Improved Neubauer hemocytometer VWR Scientific, Piscataway, N.J.). Results are expressed as number of spheres per (40X) field per gram of ventricle. A minimum of ten fields were counted and the mean ± SEM is reported.

[5] = in vitro toxicity to endothelial cells; type: cell-based; conditions: data not shown, read-out: concentration toxic to endothelial cells

CCCOc1ccccc1-c1nc2[nH]nnc2c(=O)[nH]1 [M&B 22948, 2-o-propoxyphenyl-8-azapurin-6-one]
effect on vasodilators (pulmonary vasculature): augments the pulmonary vasodilating effects of NO(cGMP)-dependent vasodilators, but not those of a cAMP-dependent vasodilator

NNc1nncc2ccccc12 [hydralazine]
pulmonary artery flushing time (lung [1]; 30 mL at constant pressure during harvest): 69.3 ± 4.5 s
recipient survival (lung [1]; 6 h in EC, 30 min, supplements NTG 0.1 mg/mL, hydralazine 0.02 μg/mL): 33%
effect on lung preservation (lung [2]): not proven beneficial in lung preservation

nitric oxide [NO]
minimal concentration relaxing vascular smooth muscle (vascular smooth muscle): less than 15 nM

CCCC(=O)Nc1ncnc2c1ncn2[C@@H]1O[C@@H]2COP(=O)(O)O[C@H]2[C@H]1OC(=O)CCC [db-cAMP, N^6, O^2' -dibutyryl adenosine 3',5'monophosphate]
fold decrease in neutrophil infiltration / myeloperoxidase activity ([3]; 12 h, db-cAMP 2 mM in LR vs LR alone): 3.2 fold
PMNs in blood vessel by histology ([3]; 12 h in LR, 10 min reperfusion, db-cAMP 2 mM where added): no PMNs
concentration for optimal/maximal preservation (heart; 12 h in LR): 1 to 2 mM
graft survival (heart; 12 h preservation in LR): 90%
graft blood flow ([4]; 12 h in LR, db-cAMP 2 mM vs LR alone): significant increase in blood flow
fold increase in graft blood flow ([4]; vs without db-cAMP): 5.5 fold
MCC [5]: > 4 mM
